According to patent US20040076659A1, “Additive for livestock feeds” (priority 1994, published 2004):

Tests used:
[1] = system: rumen microbial proteinases; experiment: Protease activity of mixed rumen microbial cell enzyme source (casein substrate); format: biochemical, cows
Description: Two rumen-fistulated, nonlactating cows averaging 623±12.5 kg in weight were fed 5 kg dry matter (DM) of low quality timothy hay twice daily. About 2.5L of rumen fluid was collected through the fistula 4 hrs after the morning feeding at 07:00 hrs. Bulk feed particles were removed by sieving the fluid through a 0.5 mm strain. The fluid was then composited and then stored in a prewarmed (37° C.) thermal container.
A microbial powder was prepared using the acetone-butanol extraction procedure outlined by Mahadevan et al., “Preparation of protease from mixed rumen microorganisms and its use for the in vitro determination of true protein in feedstuffs,” Can. J. Anim. Sci. 67:55 (1987). About 500 g of this powder was prepared and stored at −20° C. Extraction of the proteases was accomplished by stirring 250 g of the powder with 1L of 4° C. cold water (for 1 hr) and then proceeding along Mahadevan's extraction procedure. Only extracts from the filtration with an XM-300 Amicon Filter, (approx. 300 000 molecular weight cutoff—under nitrogen gas), were made, washed twice with distilled water and the retentate freeze dried. This was referred to as the mixed microbial cell enzyme source. It was used in the protein adhesion tests and also in the parallel thiol and protease activity determinations.
Ten grams of the mixed microbial cell enzyme was dissolved in 100 ml warm (37° C.) 0.1 M phosphate buffer, pH 6.8, and used as an enzyme inoculant. The assay matrix consisted of 1 ml enzyme source, 1 ml 2% casein solution, 1 ml 01 M phosphate buffer and 1 ml of either the relevant level of surfactant or an equivalent amount of buffer. Ten levels of the two surfactants, polyoxyethylene sorbitan monoleate (Tween 80) and polyoxyethylene sorbitan monastearate (Tween 60) were tested, viz 0, 0.08, 0.16, 0.24, 0.32, 0.4, 0.8, 1.2, 1.6, and, 2.0% surfactant in the assay mixture.
The protease activity incubations were performed in 50 ml plastic centrifuge tubes, at 37° C. and under a stream of carbon dioxide gas. After 1.5 hr, 1 ml of the assay mixture was removed for the determination of thiols (SH) and disulfides (SS) (Sasago et al., “Determination of sulfhydryl and disulfide groups in milk by p-chloromercuribenzoate-diathizone method,” J. Dairy Sci. 46:1348-1351 (1963)). At the end of 2 hr incubation, the reaction was stopped with 1 ml of 15% TCA (trichloroacetic acid) solution, cooled to 4° C. under an icebath, and centrifuged at 10,000 for 10 min. The free amino acids in the supernatant were assayed using the ninhydrin method (Rosen, “a Modified Colorimetric Analysis For Amino Acids,” Arch. Biochim. Biophys. 67:10 (1957)). The optimal surfactant inclusion level was calculated by direct linear plots on the assumption that the Michaellis-Menten equation applied.

[2] = system: rumen microbial cells enzyme source; experiment: Microbial protein adsorption to ground barley straw; design: species or system cows
Description: For the cellulose adhesion tests, the microbial enzyme source was resuspended and tested for adhesion on to a cellulose. substrate (barley straw, with 4% CP and ground through 0.5 mm sieve). […] 0.1 g of the straw in 5 ml of a bacterial cell-enzyme inoculum suspension, and then following the supernatant protein change with time. Readings were taken at 10, 20, 30, 60, and 120 min. At the end of the adsorption period, the assay contents were centrifuged at 2500 g max for 10 min to precipitate the solids, and the protein in the supernatant was precipitated out by 15% TCA solution and quantified by the Bicichoninic method (Smith et al., “Measurement of protein using bicinchonic acid,” Anal. Biochem. 150:76 (1984)). […]

dairy cows = experiment: Tween 80 in total mixed ration, dairy herd trial (Example 4); format: in vivo, Holsteins
Source text: One hundred and twenty cows and heifers in a dairy herd of Holsteins were divided into three treatment groups of 40 animals per group. All animals were given ad libitum access to a total mixed ration (TMR) based on grass silage, corn silage, grass hay, barley and canola meal. The treatments imposed were: Treatment 1—TMR without additive (Control). Treatment 2—TMR formulated to contain 0.2% (wt/wt) Tween 80+0.1% enzyme preparation (wt/wt). Treatment 3—TMR formulated to contain 0.2% (wt/wt) Tween 80. The Tween 80 was coated onto silica to form a product containing 50% Tween 80 and 50% silica. The enzyme preparation was obtained from Lucta S. A. (Barcelona, Spain). The preparation had the following activities: β-glucanase 263.0, xylanase 75.1 and amylase 542.6. Activities were expressed as nmol of reducing sugars released per mg of enzyme in 1 min at 0.83 mg/ml enzyme concentration. The trial lasted 13 weeks. Animals received their respective dietary treatments for 12 weeks. Milk production and feed intake were monitored until the 13th week (1 week after animals had been removed from dietary treatments). Feed (TMR) offered to each group was weighed and recorded at each feeding. Each group was fed to provide a weighback of 5%. Samples of the feed offered and refused were taken daily, composited into weekly samples and dried at 55° C. for 72 hr to determine dry matter (DM) content. Daily (AM and PM) milk production by each cow was recorded. Animals were weighed two days in a row immediately after milking on a monthly basis. Milk samples were taken for compositional analyses (fat, protein, and somatic cells) in the week preceding the trial, and then during the trial at 4 week intervals. Samples were taken from both the AM and the PM milkings and analyzed individually.

[3] = Griffin et al., 1972; cited from earlier work
[4] = direct linear plots, Michaelis-Menten assumed

polyoxyethylene sorbitan monoleate [Tween 80]
Initial rate of proteinase activation ([1]; control=0): 163.5%
Km (additive conc.), proteinase activation [1, 4]: 0.20 ± 0.03b %
Vmax (maximum proteinase activation) [1, 4]: 166.8 ± 8.9b %/unit additive conc.
Microbial protein adsorption extent ([2]; 0.05% additive): 1.12b μg/mg
Microbial protein adsorption rate ([2]; 0.05% additive): 0.032b (0.01) μg/mg/min
Microbial protein adsorption extent ([2]; 0.10% additive): 1.21c μg/mg
Microbial protein adsorption rate ([2]; 0.10% additive): 0.034c (0.02) μg/mg/min
Microbial protein adsorption extent ([2]; 0.25% additive): 1.18c μg/mg
Microbial protein adsorption rate ([2]; 0.25% additive): 0.035c (0.01) μg/mg/min
Microbial protein adsorption extent ([2]; 0.50% additive): 1.19c μg/mg
Microbial protein adsorption rate ([2]; 0.50% additive): 0.034c (0.02) μg/mg/min
More milk per cow than control over the 12-week period (dairy cows; 0.2% Tween 80 (with or without 0.1% enzyme)): 64 kg
Average increase in milk production over control (dairy cows; all cows lactating at least 3 weeks before start, 0.2% Tween 80 (with or without 0.1% enzyme)): 0.76 kg/cow/day
Milk produced (kg) per kg of feed consumed (dairy cows; feed conversion efficiency): 1.48 kg per kg of feed
More milk than control (dairy cows; fresh cows, after the 4th week of lactation): approximately 4 kg more milk/cow/day
More milk than a cow on Tween 80 plus enzyme over 12 weeks (dairy cows; mature cow, 0.2% Tween 80): 74 kg
More milk than a cow on the control diet over 12 weeks (dairy cows; mature cow, 0.2% Tween 80): 110 kg
Average increase in milk production (dairy cows; mature cows, 0.2% Tween 80): 1.31 kg/day
HLB (hydrophile-lipophile balance) [3]: 15
